Here are results for four compounds from ChEMBL document CHEMBL1201862, “PubChem BioAssay data set” (2004).

Common to all, as to type: functional
Experiment [1] has as its target Mitogen-activated protein kinase kinase kinase kinase 4 (Homo sapiens, UniProt O95819).
In experiment [2] the target is Serine/threonine-protein kinase TAO1 (Homo sapiens, UniProt Q7L7X3).
Experiment [3] deals with Lymphokine-activated killer T-cell-originated protein kinase (Homo sapiens, UniProt Q96KB5).
The target of experiment [4] is STE20-like serine/threonine-protein kinase (Homo sapiens, UniProt Q9H2G2).
Experiment [5] deals with Cyclin-dependent kinase 19 (Homo sapiens, UniProt Q9BWU1). Put plainly: Navigating the Kinome. Panel member name: CDC2L6.
Experiment [6] deals with T1, Interleukin-1 receptor-associated kinase 4 (Homo sapiens, UniProt Q9NWZ3).
T1 sequence (Q9NWZ3 whole entry): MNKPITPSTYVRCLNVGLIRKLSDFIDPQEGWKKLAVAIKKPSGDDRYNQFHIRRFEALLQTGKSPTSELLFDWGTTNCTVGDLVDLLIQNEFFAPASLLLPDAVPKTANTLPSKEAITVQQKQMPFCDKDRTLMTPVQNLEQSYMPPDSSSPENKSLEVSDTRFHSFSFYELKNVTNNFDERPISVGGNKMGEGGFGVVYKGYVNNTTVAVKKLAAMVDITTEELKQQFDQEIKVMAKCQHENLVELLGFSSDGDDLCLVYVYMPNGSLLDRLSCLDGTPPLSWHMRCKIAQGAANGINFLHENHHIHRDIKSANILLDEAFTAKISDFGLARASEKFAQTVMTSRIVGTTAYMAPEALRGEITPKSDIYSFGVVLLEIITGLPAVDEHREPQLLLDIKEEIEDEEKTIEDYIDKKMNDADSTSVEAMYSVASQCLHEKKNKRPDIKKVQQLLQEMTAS

Experiment [7] has as its target Serine/threonine-protein kinase DCLK1 (Homo sapiens, UniProt O15075).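 Further: affinity for DCLK1 (listed as DCAMKL1) measured as one member of a kinome-wide kinase profiling panel.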
Experiment [8] has as its target Serine/threonine-protein kinase D3 (Homo sapiens, UniProt O94806).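 Further: determined within a kinase panel screen, with PRKCN as the panel member.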
For experiment [9], the target named is Serine/threonine-protein kinase pim-2 (Homo sapiens, UniProt Q9P1W9).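 Further: value comes from a broad kinase panel profiling study in which PIM2 was one of the panel members.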
Experiment [10] has as its target Phosphorylase b kinase gamma catalytic chain, liver/testis isoform (Homo sapiens, UniProt P15735).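 Further: PHKG2 measured as one member of a kinome-wide kinase panel.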
Experiment [11] deals with Cyclin-dependent kinase 8 (Homo sapiens, UniProt P49336). Put plainly: Navigating the Kinome. Panel member name: CDK8.
Experiment [12] addresses ALK tyrosine kinase receptor (Homo sapiens, UniProt Q9UM73).
For experiment [13], the target named is Leucine-rich repeat serine/threonine-protein kinase 2 (Homo sapiens, UniProt Q5S007).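 Further: value from a broad kinome-wide panel profiling study in which LRRK2 was one of the kinases tested.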
The target in experiment [14] is Leukocyte tyrosine kinase receptor (Homo sapiens, UniProt P29376). In words: Navigating the Kinome. Panel member name: LTK.
Experiment [15] addresses Hepatocyte growth factor receptor (Homo sapiens, UniProt P08581).
The target in experiment [16] is Proto-oncogene tyrosine-protein kinase receptor Ret (Homo sapiens, UniProt P07949).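 Further: measured within a kinome-wide profiling panel, RET as the panel member.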
The target of experiment [17] is Dual specificity protein kinase CLK4 (Homo sapiens, UniProt Q9HAZ1).
In experiment [18] the target is Dual specificity tyrosine-phosphorylation-regulated kinase 1A (Homo sapiens, UniProt Q13627).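 Further: measured against DYRK1A as one member of a broad kinome profiling panel.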
For experiment [19], the target named is Tyrosine-protein kinase receptor TYRO3 (Homo sapiens, UniProt Q06418).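 Further: TYRO3 value obtained as one member of a kinome-wide profiling panel.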
Experiment [20] addresses Dual specificity tyrosine-phosphorylation-regulated kinase 1B (Homo sapiens, UniProt Q9Y463). In words: Navigating the Kinome. Panel member name: DYRK1B.
In experiment [21] the target is Macrophage-stimulating protein receptor (Homo sapiens, UniProt Q04912). Put plainly: Navigating the Kinome. Panel member name: MST1R.
Experiment [22] has as its target Receptor tyrosine-protein kinase erbB-2 (Homo sapiens, UniProt P04626). Put plainly: Navigating the Kinome. Panel member name: ERBB2.
The target in experiment [23] is Tyrosine-protein kinase Srms (Homo sapiens, UniProt Q9H3Y6).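 Further: SRMS measured as one member of a kinome-wide kinase profiling panel.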
For experiment [24], the target named is T2, Tyrosine-protein kinase JAK3 (Homo sapiens, UniProt P52333).
T2 sequence (P52333 whole entry): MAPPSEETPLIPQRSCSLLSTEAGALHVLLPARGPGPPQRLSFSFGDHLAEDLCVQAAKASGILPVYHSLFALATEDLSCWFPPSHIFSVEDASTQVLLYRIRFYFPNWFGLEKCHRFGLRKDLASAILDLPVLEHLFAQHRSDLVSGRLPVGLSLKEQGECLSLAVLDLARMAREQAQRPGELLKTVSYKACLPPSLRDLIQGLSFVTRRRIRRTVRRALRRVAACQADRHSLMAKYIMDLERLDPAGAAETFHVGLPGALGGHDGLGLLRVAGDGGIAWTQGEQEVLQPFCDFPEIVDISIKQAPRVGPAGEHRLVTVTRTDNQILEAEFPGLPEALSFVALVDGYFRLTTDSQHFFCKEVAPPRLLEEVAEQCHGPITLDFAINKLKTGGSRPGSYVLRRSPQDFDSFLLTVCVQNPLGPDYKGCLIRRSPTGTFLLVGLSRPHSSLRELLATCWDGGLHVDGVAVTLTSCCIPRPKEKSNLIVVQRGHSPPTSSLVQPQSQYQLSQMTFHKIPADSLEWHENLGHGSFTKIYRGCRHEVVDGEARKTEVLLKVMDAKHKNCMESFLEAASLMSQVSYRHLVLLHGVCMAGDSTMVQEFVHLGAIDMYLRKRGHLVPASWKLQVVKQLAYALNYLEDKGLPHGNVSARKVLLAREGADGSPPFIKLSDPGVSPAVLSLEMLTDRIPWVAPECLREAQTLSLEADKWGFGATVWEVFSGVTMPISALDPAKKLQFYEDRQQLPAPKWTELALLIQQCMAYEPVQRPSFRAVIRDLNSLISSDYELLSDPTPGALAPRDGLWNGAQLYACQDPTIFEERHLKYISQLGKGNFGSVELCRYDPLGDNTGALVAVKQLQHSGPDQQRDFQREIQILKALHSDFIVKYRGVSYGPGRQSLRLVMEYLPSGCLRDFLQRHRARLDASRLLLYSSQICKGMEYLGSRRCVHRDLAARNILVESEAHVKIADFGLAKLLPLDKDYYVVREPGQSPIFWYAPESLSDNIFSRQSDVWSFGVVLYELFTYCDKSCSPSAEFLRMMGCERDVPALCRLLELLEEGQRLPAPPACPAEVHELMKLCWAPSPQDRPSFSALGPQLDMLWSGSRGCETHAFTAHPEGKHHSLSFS

In experiment [25] the target is Testis-specific serine/threonine-protein kinase 2 (Homo sapiens, UniProt Q96PF2).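 Further: part of the Navigating the Kinome panel, target entry STK22B.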
The target of experiment [26] is MAP kinase-activated protein kinase 5 (Homo sapiens, UniProt Q8IW41).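 Further: measured as one member of a kinome panel.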
For experiment [27], the target named is Testis-specific serine/threonine-protein kinase 1 (Homo sapiens, UniProt Q9BXA7).
Experiment [28] has as its target Mitogen-activated protein kinase 13 (Homo sapiens, UniProt O15264).
For experiment [29], the target named is Tyrosine-protein kinase SYK (Homo sapiens, UniProt P43405).
In experiment [30] the target is Tyrosine-protein kinase JAK2 (Homo sapiens, UniProt O60674).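 Further: JAK2 tested as one member of a kinase panel.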
The target of experiment [31] is Aurora kinase B (Homo sapiens, UniProt Q96GD4).
The target of experiment [32] is Tyrosine-protein kinase Lyn (Homo sapiens, UniProt P07948).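 Further: lyn as one member of a kinase panel.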
The target of experiment [33] is Mitogen-activated protein kinase 1 (Homo sapiens, UniProt P28482).
Experiment [34] concerns the target Tyrosine-protein kinase Lck (Homo sapiens, UniProt P06239).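 Further: lck was assayed as one member of a kinase panel.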
Experiment [35] deals with T3, Tyrosine-protein kinase ITK/TSK (Homo sapiens, UniProt Q08881).
T3 sequence (Q08881 whole entry): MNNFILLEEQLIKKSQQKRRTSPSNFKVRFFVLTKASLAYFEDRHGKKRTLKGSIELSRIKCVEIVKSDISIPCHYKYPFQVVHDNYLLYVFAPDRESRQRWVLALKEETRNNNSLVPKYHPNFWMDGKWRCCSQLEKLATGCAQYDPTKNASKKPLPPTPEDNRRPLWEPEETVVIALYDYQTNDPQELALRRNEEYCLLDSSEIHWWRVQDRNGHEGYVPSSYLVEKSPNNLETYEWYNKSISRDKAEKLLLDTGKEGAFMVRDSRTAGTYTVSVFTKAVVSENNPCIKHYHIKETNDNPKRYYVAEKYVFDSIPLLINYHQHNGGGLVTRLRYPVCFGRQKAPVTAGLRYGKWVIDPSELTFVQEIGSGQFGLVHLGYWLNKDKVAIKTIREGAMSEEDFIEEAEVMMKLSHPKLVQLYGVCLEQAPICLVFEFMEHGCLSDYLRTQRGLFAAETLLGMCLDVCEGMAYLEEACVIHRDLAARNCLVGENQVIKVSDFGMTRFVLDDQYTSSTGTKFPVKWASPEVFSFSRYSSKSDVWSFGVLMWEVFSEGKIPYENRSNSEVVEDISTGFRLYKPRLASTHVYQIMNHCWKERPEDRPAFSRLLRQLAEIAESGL

Experiment [36] deals with Calcium/calmodulin-dependent protein kinase type II subunit delta (Homo sapiens, UniProt Q13557).
In experiment [37] the target is Mitogen-activated protein kinase 9 (Homo sapiens, UniProt P45984).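 Further: value from a kinome panel profiling assay, MAPK9 panel entry.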
In experiment [38] the target is Tyrosine-protein kinase Fer (Homo sapiens, UniProt P16591).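 Further: FER tested as one member of a kinome panel.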
In experiment [39] the target is Interleukin-1 receptor-associated kinase 1 (Homo sapiens, UniProt P51617).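 Further: IRAK1 tested as one member of a kinome panel.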

Calls of active or inactive are those of the source.

Serine/threonine-protein kinase pim-2, sequence (Q9P1W9 whole entry, canonical isoform): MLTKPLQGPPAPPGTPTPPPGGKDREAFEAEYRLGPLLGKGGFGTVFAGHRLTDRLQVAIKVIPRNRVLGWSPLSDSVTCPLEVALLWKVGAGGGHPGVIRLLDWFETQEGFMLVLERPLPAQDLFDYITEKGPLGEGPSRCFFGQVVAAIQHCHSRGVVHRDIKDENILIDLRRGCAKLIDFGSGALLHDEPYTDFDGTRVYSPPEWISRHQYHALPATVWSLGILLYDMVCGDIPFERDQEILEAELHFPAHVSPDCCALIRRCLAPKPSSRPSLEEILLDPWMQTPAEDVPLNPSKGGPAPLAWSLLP
Lymphokine-activated killer T-cell-originated protein kinase, sequence (Q96KB5 whole entry): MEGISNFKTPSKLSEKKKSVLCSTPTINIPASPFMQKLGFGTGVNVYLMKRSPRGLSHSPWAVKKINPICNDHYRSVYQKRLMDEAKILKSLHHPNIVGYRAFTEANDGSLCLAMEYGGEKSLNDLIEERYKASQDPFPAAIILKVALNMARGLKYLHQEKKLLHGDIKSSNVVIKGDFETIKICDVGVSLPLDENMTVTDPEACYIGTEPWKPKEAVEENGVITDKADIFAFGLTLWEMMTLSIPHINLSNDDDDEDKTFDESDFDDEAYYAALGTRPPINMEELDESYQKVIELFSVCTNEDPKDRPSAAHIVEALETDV
Dual specificity protein kinase CLK4, sequence (Q9HAZ1 whole entry): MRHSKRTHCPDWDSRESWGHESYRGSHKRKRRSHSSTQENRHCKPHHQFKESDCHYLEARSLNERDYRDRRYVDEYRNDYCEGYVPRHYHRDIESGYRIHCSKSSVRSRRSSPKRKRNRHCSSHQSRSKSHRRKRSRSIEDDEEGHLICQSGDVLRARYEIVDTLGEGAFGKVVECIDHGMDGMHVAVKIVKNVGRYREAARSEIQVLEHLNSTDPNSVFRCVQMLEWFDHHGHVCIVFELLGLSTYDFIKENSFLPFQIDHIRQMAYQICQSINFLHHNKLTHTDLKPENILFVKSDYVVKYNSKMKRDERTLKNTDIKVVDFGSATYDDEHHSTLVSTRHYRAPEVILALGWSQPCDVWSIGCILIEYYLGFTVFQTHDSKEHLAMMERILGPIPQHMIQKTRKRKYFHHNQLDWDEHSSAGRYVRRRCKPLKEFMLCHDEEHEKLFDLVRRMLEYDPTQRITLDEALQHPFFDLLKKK
MAP kinase-activated protein kinase 5, sequence (Q8IW41 whole entry): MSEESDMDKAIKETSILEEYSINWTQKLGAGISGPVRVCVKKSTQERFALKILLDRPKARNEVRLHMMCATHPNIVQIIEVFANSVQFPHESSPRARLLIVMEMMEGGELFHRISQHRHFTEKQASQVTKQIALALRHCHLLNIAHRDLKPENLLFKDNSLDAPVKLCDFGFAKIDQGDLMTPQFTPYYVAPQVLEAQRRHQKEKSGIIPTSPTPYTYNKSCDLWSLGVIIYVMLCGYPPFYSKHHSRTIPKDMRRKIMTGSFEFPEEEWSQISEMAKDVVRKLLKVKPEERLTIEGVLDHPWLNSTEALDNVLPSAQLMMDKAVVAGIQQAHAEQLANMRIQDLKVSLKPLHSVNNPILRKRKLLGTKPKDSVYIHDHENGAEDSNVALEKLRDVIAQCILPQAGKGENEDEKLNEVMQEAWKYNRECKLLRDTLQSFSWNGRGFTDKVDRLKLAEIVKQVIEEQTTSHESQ
Interleukin-1 receptor-associated kinase 1, sequence (P51617 whole entry): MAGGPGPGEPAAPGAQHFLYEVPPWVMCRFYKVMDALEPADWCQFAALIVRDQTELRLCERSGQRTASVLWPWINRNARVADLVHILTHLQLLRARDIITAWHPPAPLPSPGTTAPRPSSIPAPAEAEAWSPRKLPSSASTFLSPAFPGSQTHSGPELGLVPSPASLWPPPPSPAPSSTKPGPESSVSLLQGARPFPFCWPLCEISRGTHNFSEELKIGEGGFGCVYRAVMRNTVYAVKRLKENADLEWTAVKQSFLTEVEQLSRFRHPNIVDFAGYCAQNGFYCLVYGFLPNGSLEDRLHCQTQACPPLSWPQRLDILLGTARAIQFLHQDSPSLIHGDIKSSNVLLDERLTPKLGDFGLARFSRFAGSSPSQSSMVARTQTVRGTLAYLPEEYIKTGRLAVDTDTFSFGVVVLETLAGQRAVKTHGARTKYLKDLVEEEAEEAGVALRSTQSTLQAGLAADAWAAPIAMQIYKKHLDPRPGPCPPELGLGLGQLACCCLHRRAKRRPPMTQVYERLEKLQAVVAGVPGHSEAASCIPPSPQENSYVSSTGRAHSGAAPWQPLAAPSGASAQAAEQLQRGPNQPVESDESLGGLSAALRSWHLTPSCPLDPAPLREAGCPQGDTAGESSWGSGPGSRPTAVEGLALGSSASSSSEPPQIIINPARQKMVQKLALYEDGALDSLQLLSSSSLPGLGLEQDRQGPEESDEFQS
Tyrosine-protein kinase Fer, sequence (P16591 whole entry): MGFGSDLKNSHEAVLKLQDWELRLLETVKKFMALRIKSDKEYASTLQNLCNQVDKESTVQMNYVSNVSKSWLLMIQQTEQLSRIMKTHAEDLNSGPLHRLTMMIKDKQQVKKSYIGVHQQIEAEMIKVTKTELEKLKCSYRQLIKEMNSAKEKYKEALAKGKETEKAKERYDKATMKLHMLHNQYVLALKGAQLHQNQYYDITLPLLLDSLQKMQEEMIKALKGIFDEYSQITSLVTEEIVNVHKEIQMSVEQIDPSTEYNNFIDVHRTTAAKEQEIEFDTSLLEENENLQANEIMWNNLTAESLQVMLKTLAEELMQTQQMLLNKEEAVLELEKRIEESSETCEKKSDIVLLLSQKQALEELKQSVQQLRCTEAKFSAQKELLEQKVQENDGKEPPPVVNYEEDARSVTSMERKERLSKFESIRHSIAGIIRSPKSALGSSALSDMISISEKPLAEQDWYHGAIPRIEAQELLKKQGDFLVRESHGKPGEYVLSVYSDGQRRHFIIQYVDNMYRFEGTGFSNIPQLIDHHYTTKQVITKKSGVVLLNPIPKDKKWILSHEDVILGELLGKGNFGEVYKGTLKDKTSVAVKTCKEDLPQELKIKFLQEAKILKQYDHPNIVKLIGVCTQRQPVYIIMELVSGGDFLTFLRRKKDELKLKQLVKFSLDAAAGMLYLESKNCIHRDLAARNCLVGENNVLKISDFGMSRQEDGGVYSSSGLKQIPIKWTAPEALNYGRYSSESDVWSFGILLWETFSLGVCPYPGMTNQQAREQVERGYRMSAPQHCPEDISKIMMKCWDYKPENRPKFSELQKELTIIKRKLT
Dual specificity tyrosine-phosphorylation-regulated kinase 1B, sequence (Q9Y463 whole entry): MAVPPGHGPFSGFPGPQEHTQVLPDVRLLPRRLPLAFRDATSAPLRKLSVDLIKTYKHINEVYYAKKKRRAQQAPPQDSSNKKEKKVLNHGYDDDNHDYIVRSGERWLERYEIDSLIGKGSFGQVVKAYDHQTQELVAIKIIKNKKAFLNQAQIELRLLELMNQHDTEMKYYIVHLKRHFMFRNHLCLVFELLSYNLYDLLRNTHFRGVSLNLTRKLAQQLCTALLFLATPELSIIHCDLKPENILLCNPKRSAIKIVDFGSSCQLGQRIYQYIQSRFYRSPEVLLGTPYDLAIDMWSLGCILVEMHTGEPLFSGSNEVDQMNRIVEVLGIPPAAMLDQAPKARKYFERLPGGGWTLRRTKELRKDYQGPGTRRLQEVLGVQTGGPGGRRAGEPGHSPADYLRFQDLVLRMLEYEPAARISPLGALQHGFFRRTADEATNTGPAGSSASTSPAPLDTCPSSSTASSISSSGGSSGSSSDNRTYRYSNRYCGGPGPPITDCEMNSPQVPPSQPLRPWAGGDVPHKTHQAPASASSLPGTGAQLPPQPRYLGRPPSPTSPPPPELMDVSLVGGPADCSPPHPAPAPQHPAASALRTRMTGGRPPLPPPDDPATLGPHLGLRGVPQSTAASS
Mitogen-activated protein kinase kinase kinase kinase 4, sequence (O95819 whole entry): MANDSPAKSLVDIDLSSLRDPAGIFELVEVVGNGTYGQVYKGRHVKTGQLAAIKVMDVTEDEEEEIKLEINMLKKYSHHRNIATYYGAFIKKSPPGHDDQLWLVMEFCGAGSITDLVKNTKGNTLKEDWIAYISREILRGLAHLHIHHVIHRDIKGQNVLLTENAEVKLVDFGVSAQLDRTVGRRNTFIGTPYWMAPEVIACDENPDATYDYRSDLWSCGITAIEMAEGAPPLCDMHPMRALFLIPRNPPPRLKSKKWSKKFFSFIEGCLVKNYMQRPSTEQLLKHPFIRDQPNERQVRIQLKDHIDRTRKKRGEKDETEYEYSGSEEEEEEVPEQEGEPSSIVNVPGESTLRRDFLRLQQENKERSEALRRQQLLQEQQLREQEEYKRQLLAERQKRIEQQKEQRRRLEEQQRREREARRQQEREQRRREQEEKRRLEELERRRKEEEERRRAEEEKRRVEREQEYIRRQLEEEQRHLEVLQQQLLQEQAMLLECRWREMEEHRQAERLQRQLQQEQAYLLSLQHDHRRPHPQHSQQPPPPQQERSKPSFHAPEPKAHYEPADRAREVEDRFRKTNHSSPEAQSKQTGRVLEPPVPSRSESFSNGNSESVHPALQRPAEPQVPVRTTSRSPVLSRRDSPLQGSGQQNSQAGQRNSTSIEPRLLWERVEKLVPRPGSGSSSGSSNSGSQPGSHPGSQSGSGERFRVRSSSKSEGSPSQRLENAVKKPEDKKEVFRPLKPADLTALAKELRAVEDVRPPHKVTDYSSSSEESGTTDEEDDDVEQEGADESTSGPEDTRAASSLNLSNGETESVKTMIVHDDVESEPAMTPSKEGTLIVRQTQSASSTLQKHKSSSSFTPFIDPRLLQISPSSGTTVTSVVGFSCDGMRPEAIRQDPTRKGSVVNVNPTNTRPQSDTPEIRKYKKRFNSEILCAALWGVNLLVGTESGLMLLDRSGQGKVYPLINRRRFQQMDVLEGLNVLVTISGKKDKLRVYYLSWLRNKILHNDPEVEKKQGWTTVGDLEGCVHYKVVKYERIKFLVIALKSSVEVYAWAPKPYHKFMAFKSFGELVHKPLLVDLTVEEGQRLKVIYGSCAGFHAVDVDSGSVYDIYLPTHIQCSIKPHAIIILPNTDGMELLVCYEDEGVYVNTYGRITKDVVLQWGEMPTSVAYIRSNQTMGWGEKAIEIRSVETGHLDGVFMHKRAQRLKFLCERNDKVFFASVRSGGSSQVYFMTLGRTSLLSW

Regarding `O=c1[nH]c2ccccc2n2cc(-c3ccc(Cl)cc3)cc12`, the Ki in experiment [1] is 1580 nM (active); in [2] it was 3160 nM (active); in experiment [3] it was 3160 nM (active); in experiment [4], 10000 nM (active); in experiment [5] it was > 100000 nM (inactive).
Regarding `CN(c1ccc2[nH]ncc2c1)c1c(NCc2ccc(Cl)cc2Cl)c(=O)c1=O`, the Ki in experiment [3] was 10000 nM (active); in [6], 10000 nM (active); in experiment [7] it was 10000 nM (active); in experiment [8], 6310 nM (active); in experiment [9] it was 1260 nM (active); in experiment [10] it was 5010 nM (active).
For `O=c1[nH]nc2c(-c3ccccc3)cccn12`, the Ki in experiment [11] is 63100 nM (active); in experiment [12], 100000 nM (active); in experiment [13], 39800 nM (active); in [14], 39800 nM (active); in [15] it was 79400 nM (active); in experiment [16], 50100 nM (active). Further, the Ki in experiment [17] was 10000 nM (active); in experiment [18], 39800 nM (active); in experiment [19], 63100 nM (active); in experiment [20], 39800 nM (active); in experiment [21], 63100 nM (active).
As to `COc1ccc2c(c1)C(=Cc1cnc[nH]1)C(=O)N2`, the Ki in [22] was > 1580 nM (inactive); in experiment [23] it was > 1580 nM (inactive); in experiment [24], 501 nM (active); in experiment [25] it was > 1580 nM (inactive); in [26] it was > 1580 nM (inactive); in [27] it was > 1580 nM (inactive). In addition, the Ki is > 7940 nM (inactive) in experiment [28]; > 1580 nM (inactive) in [29]; 501 nM (active) in [30]; 251 nM (active) in [31]; > 1580 nM (inactive) in experiment [32]; 501 nM (active) in experiment [33]. Further, the Ki in experiment [34] is 1580 nM (active); in experiment [17], 251 nM (active); in [35] it was > 1580 nM (inactive); in experiment [9], > 1580 nM (inactive); in experiment [36], 1580 nM (active); in [37], 1580 nM (active). Moreover, the Ki is > 1580 nM (inactive) in experiment [38] and 1580 nM (active) in experiment [39].

In general, Ki refers to a measure of affinity in units of concentration, obtained from inhibition or displacement.
